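A five-concentration, 48-hour dose response in 96-well plates underlies each endpoint, interpolated linearly between surrounding concentrations. TGI is the concentration that stops growth completely.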
Assays:
Experiment in all cases: NCI-60 cell line screen, 48 h
[1] = tested on: 786-0 renal
[2] = tested on: A498 renal
[3] = tested on: A549 NSCLC
[4] = tested on: ACHN renal
[5] = tested on: BT-549 breast
[6] = tested on: CAKI-1 renal
[7] = tested on: COLO 205 colon
[8] = tested on: DU-145 prostate
[9] = tested on: EKVX NSCLC
[10] = tested on: HCT-116 colon
[11] = tested on: HCT-15 colon
[12] = tested on: HL-60(TB) leukemia
[13] = tested on: HOP-62 NSCLC
[14] = tested on: HOP-92 NSCLC
[15] = tested on: HS 578T breast
[16] = tested on: HT29 colon
[17] = tested on: IGROV1 ovarian
[18] = tested on: KM12 colon
[19] = tested on: M14 melanoma
[20] = tested on: MALME-3M melanoma
[21] = tested on: MCF7 breast
[22] = tested on: MDA-MB-231 breast
[23] = tested on: MDA-MB-435
[24] = tested on: MDA-N
[25] = tested on: MOLT-4 leukemia
[26] = tested on: NCI-H226 lung
[27] = tested on: NCI-H23 lung
[28] = tested on: NCI-H522 lung
[29] = tested on: NCI/ADR-RES ovarian
[30] = tested on: OVCAR-3 ovarian
[31] = tested on: OVCAR-4 ovarian
[32] = tested on: OVCAR-5 ovarian
[33] = tested on: OVCAR-8 ovarian
[34] = tested on: PC-3 prostate
[35] = tested on: RPMI-8226 leukemia
[36] = tested on: SF-268 CNS
[37] = tested on: SF-295 CNS
[38] = tested on: SF-539 CNS
[39] = tested on: SK-MEL-2 melanoma
[40] = tested on: SK-MEL-28 melanoma
[41] = tested on: SK-MEL-5 melanoma
[42] = tested on: SK-OV-3 ovarian
[43] = tested on: SN12C renal
[44] = tested on: SNB-19 CNS
[45] = tested on: SR leukemia
[46] = tested on: SW-620 colon
[47] = tested on: T-47D breast
[48] = tested on: TK-10 renal
[49] = tested on: U251 CNS
[50] = tested on: UACC-257 melanoma
[51] = tested on: UACC-62 melanoma
[52] = tested on: UO-31 renal
[53] = tested on: CCRF-CEM leukemia
[54] = tested on: K-562 leukemia
[55] = tested on: LOX IMVI melanoma
[56] = tested on: NCI-H460 lung
[57] = tested on: RXF 393 renal
[58] = tested on: SNB-75 CNS

Question: Which results are given for `C=CCN1C[C@H](C)N([C@H](c2ccc(C(=O)N(CC)CC)cc2)c2cccc(OC)c2)C[C@H]1C`?
Answer: TGI [1]: > 100 µM; TGI [2]: > 100 µM; TGI [3]: > 100 µM; TGI [4]: > 100 µM; TGI [5]: > 100 µM; TGI [6]: > 100 µM; TGI [7]: 38.7 µM; TGI [8]: > 100 µM; TGI [9]: > 100 µM; TGI [10]: > 100 µM; TGI [11]: > 100 µM; TGI [12]: 64.9 µM; TGI [13]: > 100 µM; TGI [14]: 63.9 µM; TGI [15]: > 100 µM; TGI [16]: > 100 µM; TGI [17]: > 100 µM; TGI [18]: > 100 µM; TGI [19]: > 100 µM; TGI [20]: 47 µM; TGI [21]: > 100 µM; TGI [22]: > 100 µM; TGI [23]: > 100 µM; TGI [24]: > 100 µM; TGI [25]: 99.5 µM; TGI [26]: 95.6 µM; TGI [27]: > 100 µM; TGI [28]: > 100 µM; TGI [29]: > 100 µM; TGI [30]: 50.5 µM; TGI [31]: > 100 µM; TGI [32]: > 100 µM; TGI [33]: > 100 µM; TGI [34]: > 100 µM; TGI [35]: > 100 µM; TGI [36]: > 100 µM; TGI [37]: 58.3 µM; TGI [38]: > 100 µM; TGI [39]: > 100 µM; TGI [40]: > 100 µM; TGI [41]: 27.6 µM; TGI [42]: > 100 µM; TGI [43]: > 100 µM; TGI [44]: > 100 µM; TGI [45]: > 100 µM; TGI [46]: > 100 µM; TGI [47]: 65.5 µM; TGI [48]: > 100 µM; TGI [49]: > 100 µM; TGI [50]: 52.3 µM; TGI [51]: > 100 µM; TGI [52]: > 100 µM

Question: Which results are given for `CC(C)(C)OC(=O)[C@@H]1ON2O[C@H](OC3CCCC3(c3ccccc3)c3ccccc3)C[C@H]3OC(=O)[C@@H]1[C@H]32` (some centres not stated)?
Answer: TGI [1]: > 100 µM; TGI [3]: > 100 µM; TGI [4]: > 100 µM; TGI [5]: > 100 µM; TGI [6]: > 100 µM; TGI [53]: > 100 µM; TGI [7]: > 100 µM; TGI [8]: > 100 µM; TGI [9]: > 100 µM; TGI [10]: > 100 µM; TGI [11]: > 100 µM; TGI [13]: > 100 µM; TGI [16]: > 100 µM; TGI [17]: > 100 µM; TGI [54]: > 100 µM; TGI [18]: > 100 µM; TGI [55]: 96.6 µM; TGI [19]: > 100 µM; TGI [21]: > 100 µM; TGI [22]: > 100 µM; TGI [23]: > 100 µM; TGI [24]: > 100 µM; TGI [26]: > 100 µM; TGI [27]: > 100 µM; TGI [56]: > 100 µM; TGI [28]: > 100 µM; TGI [29]: > 100 µM; TGI [30]: 54.1 µM; TGI [31]: 54.3 µM; TGI [32]: > 100 µM; TGI [34]: > 100 µM; TGI [57]: 92.1 µM; TGI [36]: > 100 µM; TGI [37]: > 100 µM; TGI [38]: > 100 µM; TGI [39]: 51.8 µM; TGI [40]: > 100 µM; TGI [41]: > 100 µM; TGI [42]: > 100 µM; TGI [43]: > 100 µM; TGI [44]: > 100 µM; TGI [58]: > 100 µM; TGI [45]: > 100 µM; TGI [46]: > 100 µM; TGI [47]: > 100 µM; TGI [48]: > 100 µM; TGI [49]: > 100 µM; TGI [50]: > 100 µM; TGI [51]: > 100 µM; TGI [52]: > 100 µM

From PubChem BioAssay (NCI)
